From patent publication US20120183493A1, “NOVEL POLYMERS” (PharmaPatents Global Ltd., priority 2009, published 2012)
Where two headings read alike, the source gives them in different places.

Assays:
[1] = Solubility of the purified solid in organic solvents; type: physicochemical
Description: (§1) 4 g of captopril in 15 ml of toluene with 0.5 g of Novozyme lipase B from Candida antartica was stirred in a 100 ml round bottom flask fitted with a drying tube (containing 3 Å molecular sieves and indicator silica gel) for 48 hours at 110° C. using a hotplate and magnetic stirrer. 50 ml of THF was then added and the enzyme was removed by filtration.
as §1, with “captopril lactone” for “captopril”

[2] = tested on: guinea pig gingival fibroblast cells; details: cited from earlier work
hypertrophied scars = details: topical application, animal model of pathologic scarring; cited from earlier work
dermal healing = details: by reducing fibrosis and improving collagen remodelling; cited from earlier work
[3] = tested on: fibroblasts from human hypertrophic scars; details: cited from earlier work; for proliferation of fibroblasts derived from hypertrophic scars: compound alone; for effect on AT II-stimulated increase in DNA synthesis: cultured fibroblasts, stimulation with AT II
keloid scar = details: cited from earlier work
[4] = tested on: experimental hepatic fibrosis; details: rats; cited from earlier work
[5] = phenytoin- or nifedipine-induced gingival fibroblasts

C[C@H](CS)C(=O)N1CCC[C@H]1C(=O)O [captopril]
solubility in THF [1]: freely soluble | solubility in chloroform [1]: freely soluble | solubility in methanol [1]: freely soluble | development of induced proliferation [2, 5]: inhibited the development of proliferation | immunostaining intensities of immunoreactive angiotensin II [2, 5]: reduced these enhanced immunostaining intensities to control levels | formation of hypertrophied scars (hypertrophied scars): prevented the formation of hypertrophied scars

O=C1NC(=O)C(c2ccccc2)(c2ccccc2)N1 [phenyloin]
proliferation of gingival fibroblast cells ([2]; guinea pig gingival fibroblast cells): induced proliferation

Ang(1-7): angiotensin peptide Ang(1-7) (DRVYIHP; Angiotensin 1-7; UniProt P01019 25-31, looked up, fragment)
dermal healing following wounding (dermal healing): accelerate dermal healing

C[C@@H]1CSC(=O)[C@@H]2CCCN2C1=O [captopril lactone]
solubility in THF [1]: freely soluble | solubility in chloroform [1]: freely soluble | solubility in methanol [1]: freely soluble

Cc1cc(Cn2cnc3c2C[C@@H](C(=O)O)N(C(=O)C(c2ccccc2)c2ccccc2)C3)ccc1N(C)C [PD123319]
proliferation of fibroblasts derived from hypertrophic scars [3]: did not influence | effect on AT II-stimulated increase in DNA synthesis [3]: augmented

CCOC(=O)[C@H](CCc1ccccc1)N[C@@H](C)C(=O)N1CCC[C@H]1C(=O)O [enalapril]
keloid scar outcome (keloid scar; first patient (co-author), 10 mg once daily): rapidly improved | keloid scar outcome (keloid scar; person with diabetes, same low dose, after six months of therapy): marked improvement

CCCCC(=O)N(Cc1ccc(-c2ccccc2-c2nnn[nH]2)cc1)[C@H](C(=O)O)C(C)C [valsartan]
progression of experimental hepatic fibrosis [4]: ameliorate progression | proliferation of fibroblasts derived from hypertrophic scars [3]: did not influence | effect on AT II-stimulated increase in DNA synthesis [3]: inhibited

CCC[C@H](N[C@@H](C)C(=O)N1[C@H](C(=O)O)C[C@@H]2CCCC[C@@H]21)C(=O)OCC [perindopril]
progression of experimental hepatic fibrosis [4]: ameliorate progression
